Read-outs that look alike come from different tables or passages of the source.
What was measured:
c-Kit kinase = c-Kit kinase (Homo sapiens, UniProt P10721); test: c-Kit AlphaScreen kinase assay; format: biochemical;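 note: c-Kit kinase phosphorylating biotinylated poly(Glu,Tyr), ATP near its KM, 1 h reaction at ambient temperature, AlphaScreen chemiluminescence with streptavidin donor and anti-phosphotyrosine acceptor beads, 10-point inhibitor titration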
[1] = molecular target: T1, c-Met (baculovirus expressed human c-Met kinase domain P948-S1343) (Homo sapiens, UniProt P08581); test: c-Met Luciferase-Coupled Chemiluminescent Kinase assay (LCCA); format: biochemical;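 note: kinase activity read as percent ATP left after reaction, by luciferase-luciferin chemiluminescence, with 1 µM ATP and 1 µM poly-EY substrate, 2 h at ambient temperature, 10-point dose-response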
T1 construct: human c-Met kinase domain P948-S1343; host or cells: baculovirus expression
T1 sequence (P08581 1011-1343 limits assumed): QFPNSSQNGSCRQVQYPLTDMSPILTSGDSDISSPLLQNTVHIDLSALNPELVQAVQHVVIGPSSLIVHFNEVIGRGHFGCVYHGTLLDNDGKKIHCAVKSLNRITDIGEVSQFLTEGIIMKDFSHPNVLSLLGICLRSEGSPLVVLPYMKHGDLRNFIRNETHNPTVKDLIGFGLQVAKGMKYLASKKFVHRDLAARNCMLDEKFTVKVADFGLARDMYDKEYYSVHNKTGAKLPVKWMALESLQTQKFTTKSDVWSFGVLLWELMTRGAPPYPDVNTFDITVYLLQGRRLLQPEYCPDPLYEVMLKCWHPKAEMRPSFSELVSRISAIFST

[2] = molecular target: T2, Flt-3 (baculovirus expressed human Flt-3 kinase domain R571-S993) (Homo sapiens, UniProt P36888); test: biochemical; details: read-out: flt3 IC50;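 note: Luciferase-coupled chemiluminescent kinase assay, activity read as percent ATP left after a 3 h reaction at room temperature, ATP near KM, 10-point dose-response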
T2 construct: human Flt-3 kinase domain R571-S993; host or cells: baculovirus expression
T2 sequence (P36888 571-993): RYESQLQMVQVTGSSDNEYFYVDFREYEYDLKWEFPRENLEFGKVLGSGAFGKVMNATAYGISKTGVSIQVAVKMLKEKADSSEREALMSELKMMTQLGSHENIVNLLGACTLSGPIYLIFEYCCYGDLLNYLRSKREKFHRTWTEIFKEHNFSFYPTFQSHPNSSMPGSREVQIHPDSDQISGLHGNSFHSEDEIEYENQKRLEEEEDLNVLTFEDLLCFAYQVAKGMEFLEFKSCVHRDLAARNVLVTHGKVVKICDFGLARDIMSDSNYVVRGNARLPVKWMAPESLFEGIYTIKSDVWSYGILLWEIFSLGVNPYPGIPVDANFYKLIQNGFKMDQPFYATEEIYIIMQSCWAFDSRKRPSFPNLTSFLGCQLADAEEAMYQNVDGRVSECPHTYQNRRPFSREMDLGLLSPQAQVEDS

[3] = molecular target: T3, KDR (baculovirus expressed human KDR kinase domain D807-V1356) (Homo sapiens, UniProt P35968); test: biochemical;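 note: Luciferase-coupled chemiluminescent kinase assay, activity read as percent ATP left after 4 h reaction at ambient temperature, ATP near KM, 10-point dose-response in 384-well plates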
T3 construct: human KDR kinase domain D807-V1356; host or cells: baculovirus expression
T3 sequence (P35968 807-1356): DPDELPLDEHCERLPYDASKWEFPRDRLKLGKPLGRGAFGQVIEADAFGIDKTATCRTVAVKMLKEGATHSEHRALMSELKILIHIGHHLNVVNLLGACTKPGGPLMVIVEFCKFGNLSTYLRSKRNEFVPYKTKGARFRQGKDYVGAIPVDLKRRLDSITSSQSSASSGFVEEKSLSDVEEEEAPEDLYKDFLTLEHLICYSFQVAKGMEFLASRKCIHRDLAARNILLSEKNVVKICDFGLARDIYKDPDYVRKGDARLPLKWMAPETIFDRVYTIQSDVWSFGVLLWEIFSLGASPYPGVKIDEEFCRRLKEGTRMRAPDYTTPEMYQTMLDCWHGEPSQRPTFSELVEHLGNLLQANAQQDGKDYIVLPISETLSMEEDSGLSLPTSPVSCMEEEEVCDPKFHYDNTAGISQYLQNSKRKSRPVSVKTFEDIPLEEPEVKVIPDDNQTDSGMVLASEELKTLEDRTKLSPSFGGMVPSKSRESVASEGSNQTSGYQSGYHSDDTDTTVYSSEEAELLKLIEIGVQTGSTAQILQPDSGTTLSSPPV

[4] = Table 4, inhibition as IC50 class

c-Kit kinase, sequence (P10721 26-976): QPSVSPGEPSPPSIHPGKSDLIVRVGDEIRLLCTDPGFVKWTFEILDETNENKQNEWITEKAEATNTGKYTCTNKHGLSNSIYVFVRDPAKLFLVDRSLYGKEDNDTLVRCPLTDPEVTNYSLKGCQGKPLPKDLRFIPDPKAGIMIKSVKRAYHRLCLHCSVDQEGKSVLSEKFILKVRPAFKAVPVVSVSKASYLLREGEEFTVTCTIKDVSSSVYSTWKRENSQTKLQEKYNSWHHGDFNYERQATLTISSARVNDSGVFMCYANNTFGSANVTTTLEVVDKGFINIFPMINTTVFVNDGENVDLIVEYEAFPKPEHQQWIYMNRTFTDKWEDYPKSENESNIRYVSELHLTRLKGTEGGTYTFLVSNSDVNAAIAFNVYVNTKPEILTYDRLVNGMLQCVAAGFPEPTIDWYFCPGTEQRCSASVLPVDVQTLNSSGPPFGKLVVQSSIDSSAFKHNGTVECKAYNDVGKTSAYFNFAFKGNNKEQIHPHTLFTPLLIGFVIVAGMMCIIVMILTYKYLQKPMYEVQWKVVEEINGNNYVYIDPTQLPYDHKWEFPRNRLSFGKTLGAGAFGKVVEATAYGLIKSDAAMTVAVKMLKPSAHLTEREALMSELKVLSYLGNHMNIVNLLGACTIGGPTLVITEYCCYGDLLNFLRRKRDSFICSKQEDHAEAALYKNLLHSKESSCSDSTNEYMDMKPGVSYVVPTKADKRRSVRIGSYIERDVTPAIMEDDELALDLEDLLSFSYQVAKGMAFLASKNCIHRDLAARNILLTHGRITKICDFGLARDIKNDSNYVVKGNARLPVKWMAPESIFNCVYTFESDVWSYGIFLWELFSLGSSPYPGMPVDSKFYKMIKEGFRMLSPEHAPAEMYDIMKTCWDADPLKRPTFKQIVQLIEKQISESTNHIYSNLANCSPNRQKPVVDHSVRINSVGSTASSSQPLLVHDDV

IC50 [1] [nM] | IC50 [2] [nM] | IC50 [3] [nM] | Structure (SMILES) | further results
– | – | – | COc1cc2nccc(Oc3ccc(NC(=O)C(=O)NCc4ccccc4)cc3F)c2cc1OC [Entry 12] | IC50 (c-Kit kinase): 50 to 500 nM
500 to 5000 | 500 to 5000 | – | COc1cc2nccc(Oc3ccc(NC(=O)C(=O)NCCC4CCCN4C)cc3F)c2cc1OC (stereo not shown) [Entry 72] | IC50 (c-Kit kinase): 500 to 5000 nM
– | – | – | COc1cc2c(Oc3ccc(NC(=O)C(=O)NCCc4cccc(Cl)c4)cc3F)ccnc2cc1OCC1CCNCC1 [Example 149, N-[2-(3-Chloro-phenyl)-ethyl]-N′-{3-fluoro-4-[6-methoxy-7-{piperidin-4-ylmethoxy)-quinolin-4-yloxy]-phenyl}-oxalamide] | IC50 (c-Kit kinase): < 50 nM
– | – | – | CCOc1ccc(CCNC(=O)C(=O)Nc2ccc(Oc3ccnc4cc(OCC5CCNCC5)c(OC)cc34)c(F)c2)cc1 [Example 167, N-[2-(4-Ethoxy-phenyl)-ethyl]-N′-{3-fluoro-4-[6-methoxy-7-(piperidin-4-ylmethoxy)-quinolin-4-yloxy]-phenyl}-oxalamide] | IC50 (c-Kit kinase; [4]): 50 to 500 nM
– | – | – | COc1cc2c(Oc3ccc(NC(=O)C(=O)NC4CCc5ccccc54)cc3F)ccnc2cc1OCC1CCNCC1 (stereo not shown) [Example 177, N-{3-Fluoro-4-[6-methoxy-7-(piperidin-4-ylmethoxy)-quinolin-4-yloxy]-phenyl}-N′-indan-1-yl-oxalamide] | IC50 (c-Kit kinase; [4]): < 50 nM
– | – | – | COc1cc2c(Oc3ccc(NC(=O)C(=O)N[C@@H](C)c4ccccc4)cc3F)ccnc2cc1OCC1CCNCC1 [Example 184, N-{3-Fluoro-4-[6-methoxy-7-(piperidin-4-ylmethoxy)-quinolin-4-yloxy]-phenyl}-N′-(1S-phenyl-ethyl)-oxalamide] | IC50 (c-Kit kinase; [4]): < 50 nM
– | – | – | COc1cc2c(Oc3ccc(NC(=O)C(=O)NCCc4ccc(Cl)c(Cl)c4)cc3F)ccnc2cc1OCC1CCNCC1 [Example 223, N-[2-(3,4-dichlorophenyl)ethyl]-N′-[3-fluoro-4-({6-(methyloxy)-7-[(piperidin-4-ylmethyl)oxy]quinolin-4-yl}oxy)phenyl]ethanediamide] | IC50 [1, 4]: < 50 nM; IC50 [3, 4]: < 50 nM; IC50 [2, 4]: < 50 nM; IC50 (c-Kit kinase; [4]): < 50 nM
– | – | – | COc1cc2nccc(Oc3ccc(NC(=O)C(=O)NCC(c4ccccc4)N(C)C)cc3F)c2cc1OC (stereo not shown) [Example 235, N-(4-{[6,7-bis(methyloxy)quinolin-4-yl]oxy}-3-fluorophenyl)-N′-[2-(dimethylamino)-2-phenylethyl]ethanediamide] | IC50 [1, 4]: 50 to 500 nM; IC50 [3, 4]: 50 to 500 nM; IC50 [2, 4]: < 50 nM; IC50 (c-Kit kinase; [4]): 50 to 500 nM
< 50 | 500 to 5000 | < 50 | CCN(CC)CCCOc1cc2nccc(Oc3ccc(NC(=O)C4(C(=O)Nc5ccc(F)cc5)CCC4)cc3F)c2cc1OC [Example 384, N-(4-{[7-{[3-(diethylamino)propyl]oxy}-6-(methyloxy)quinolin-4-yl]oxy}-3-fluorophenyl)-N′-(4-fluorophenyl)cyclobutane-1,1-dicarboxamide] | –
< 50 | 500 to 5000 | < 50 | COc1cc2c(Oc3ccc(NC(=O)C4(C(=O)Nc5ccc(F)cc5)CCC4)cc3F)ccnc2cc1OCCCN1CCN(C)CC1 [Example 385, N-{3-fluoro-4-[(6-(methyloxy)-7-{[3-(4-methylpiperazin-1-yl)propyl]oxy}quinolin-4-yl)oxy]phenyl}-N′-(4-fluorophenyl)cyclobutane-1,1-dicarboxamide] | –
< 50 | < 50 | < 50 | CCN(CC)CCCOc1cc2ncnc(Oc3ccc(NC(=O)[C@]4(C(=O)Nc5ccc(F)cc5)C[C@H]4C)cc3F)c2cc1OC [Example 386, (1R,2R)-N-(4-{[7-{[3-(diethylamino)propyl]oxy}-6-(methyloxy)quinazolin-4-yl]oxy}-3-fluorophenyl)-N′-(4-fluorophenyl)-2-methylcyclopropane-1,1-dicarboxamide] | –
< 50 | < 50 | < 50 | COc1cc2c(Oc3ccc(NC(=O)[C@]4(C(=O)Nc5ccc(F)cc5)C[C@H]4C)cc3F)ncnc2cc1OCCCN1CCN(C)CC1 [Example 387, (1R,2R)-N-{3-fluoro-4-[(6-(methyloxy)-7-{[3-(4-methylpiperazin-1-yl)propyl]oxy}quinazolin-4-yl)oxy]phenyl}-N′-(4-fluorophenyl)-2-methylcyclopropane-1,1-dicarboxamide] | –
50 to 500 | 500 to 5000 | < 50 | CCN(CC)CCOc1cc2ncnc(Oc3ccc(NC(=O)C4(C(=O)Nc5ccc(F)cc5)[C@H](C)[C@H]4C)cc3F)c2cc1OC (stereo partly drawn) [Example 388, (2R,3R)-N-(4-{[7-{[2-(diethylamino)ethyl]oxy}-6-(methyloxy)quinazolin-4-yl]oxy}-3-fluorophenyl)-N′-(4-fluorophenyl)-2,3-dimethylcyclopropane-1,1-dicarboxamide] | –
< 50 | 50 to 500 | < 50 | CCN(CC)CCCOc1cc2ncnc(Oc3ccc(NC(=O)C4(C(=O)Nc5ccc(F)cc5)[C@H](C)[C@H]4C)cc3F)c2cc1OC (stereo partly drawn) [Example 389, (2R,3R)-N-(4-{[7-{[3-(diethylamino)propyl]oxy}-6-(methyloxy)quinazolin-4-yl]oxy}-3-fluorophenyl)-N′-(4-fluorophenyl)-2,3-dimethylcyclopropane-1,1-dicarboxamide] | –
< 50 | < 50 | < 50 | COc1cc2c(Oc3ccc(NC(=O)[C@]4(C(=O)Nc5ccc(F)cc5)C[C@H]4C)cc3F)ncnc2cc1OCCCN1CCNCC1 [Example 390, (1R,2R)-N-[3-fluoro-4-({6-(methyloxy)-7-[(3-piperazin-1-ylpropyl)oxy]quinazolin-4-yl}oxy)phenyl]-N′-(4-fluorophenyl)-2-methylcyclopropane-1,1-dicarboxamide] | –
< 50 | 50 to 500 | < 50 | CCN(CC)CCOc1cc2nccc(Oc3ccc(NC(=O)C4(C(=O)Nc5ccc(F)cc5)[C@H](C)[C@H]4C)cc3F)c2cc1OC (stereo partly drawn) [Example 391, (2R,3R)-N-(4-{[7-{[2-(diethylamino)ethyl]oxy}-6-(methyloxy)quinolin-4-yl]oxy}-3-fluorophenyl)-N′-(4-fluorophenyl)-2,3-dimethylcyclopropane-1,1-dicarboxamide] | –
50 to 500 | < 50 | 50 to 500 | COc1cc2nccc(Oc3ccc(NC(=O)C4(C(=O)NCc5ccc(F)cc5)CC4)cc3)c2cc1OC [Example 392, N-(4-{[6,7-bis(methyloxy)quinolin-4-yl]oxy}phenyl)-N′-[(4-fluorophenyl)methyl]cyclopropane-1,1-dicarboxamide] | –
500 to 5000 | 50 to 500 | > 5000 | COc1cc2nccc(Oc3ccc(NC(=O)C4(C(=O)NCCN5CCOCC5)CC4)cc3)c2cc1OC [Example 393, N-(4-{[6,7-bis(methyloxy)quinolin-4-yl]oxy}phenyl)-N′-(2-morpholin-4-ylethyl)cyclopropane-1,1-dicarboxamide] | –
50 to 500 | 50 to 500 | > 5000 | COc1cc2nccc(Oc3ccc(NC(=O)C4(C(=O)Nc5ccccc5CN5CCCCC5)CC4)cc3)c2cc1OC [Example 394, N-(4-{[6,7-bis(methyloxy)quinolin-4-yl]oxy}phenyl)-N′-[2-(piperidin-1-ylmethyl)phenyl]cyclopropane-1,1-dicarboxamide] | –
50 to 500 | 50 to 500 | 500 to 5000 | COc1cc2nccc(Oc3ccc(NC(=O)C4(C(=O)Nc5ccccc5CN5CCCC5)CC4)cc3)c2cc1OC [Example 395, N-(4-{[6,7-bis(methyloxy)quinolin-4-yl]oxy}phenyl)-N′-[2-(pyrrolidin-1-ylmethyl)phenyl]cyclopropane-1,1-dicarboxamide] | –
50 to 500 | < 50 | < 50 | COc1cc2nccc(Oc3ccc(NC(=O)C4(C(=O)Nc5cccc(CN6CCOCC6)c5)CC4)cc3)c2cc1OC [Example 396, N-(4-{[6,7-bis(methyloxy)quinolin-4-yl]oxy}phenyl)-N′-[3-(morpholin-4-ylmethyl)phenyl]cyclopropane-1,1-dicarboxamide] | –
50 to 500 | 50 to 500 | 500 to 5000 | COc1cc2nccc(Oc3ccc(NC(=O)C4(C(=O)Nc5ccccc5CN5CCOCC5)CC4)cc3)c2cc1OC [Example 397, N-(4-{[6,7-bis(methyloxy)quinolin-4-yl]oxy}phenyl)-N′-[2-(morpholin-4-ylmethyl)phenyl]cyclopropane-1,1-dicarboxamide] | –
< 50 | < 50 | < 50 | COc1cc2nccc(Oc3ccc(NC(=O)C4(C(=O)Nc5ccccc5)CC4)cc3)c2cc1OC [Example 398, N-(4-{[6,7-bis(methyloxy)quinolin-4-yl]oxy}phenyl)-N′-phenylcyclopropane-1,1-dicarboxamide] | –
50 to 500 | 50 to 500 | < 50 | COc1cc2nccc(Oc3ccc(NC(=O)C4(C(=O)Nc5cccc(CN)c5)CC4)cc3)c2cc1OC [Example 399, N-[3-(aminomethyl)phenyl]-N′-(4-{[6,7-bis(methyloxy)quinolin-4-yl]oxy}phenyl)cyclopropane-1,1-dicarboxamide] | –

— patent publication US8476298B2 (Exelixis, Inc., priority 2003, dated 2013)
